Test results from patent US11999727B2 (Tango Therapeutics, Inc., priority 2020, dated 2024).
Where two headings read alike, the source gives them in different places.

Legend:
PRMT5 [1] = biological target: T1, PRMT5 (Homo sapiens, UniProt O14744); assay: PRMT5 biochemical IC50 assay with SAM as cofactor
T1 construct: purchased Viva (custom protein)

PRMT5 [2] = biological target: T1, PRMT5; assay: PRMT5 biochemical IC50 assay with no cofactor; conditions: PRMT5, no cofactor; read-out: No Cofactor/ rel IC50
Text: Table 1 indicates IC50 values (μM) against PRMT5 for exemplary compounds in the presence of SAM as cofactor, with no cofactor, and with MTA as cofactor, respectively (columns 4-6). […] Ki values can be calculated from the IC50 values as described in the Examples section. As detailed in the Examples section, for the assay performed in the presence of SAM, IC50=Ki×1.5 (Ki=IC50/1.5).

[3] = tested on: HAP1 MTAP-intact cell line; assay: SDMA in-cell western assay, HAP1 MTAP-intact; format: cell-based; conditions: Homo sapiens
Summary of the method: (§1)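 Isogenic HAP1 pair: the MTAP-intact line expresses endogenous MTAP, and the deleted line is MTAP-null. Symmetric dimethylarginine was detected by in-cell western and IC50 values derived for each line.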

[4] = tested on: HAP1 MTAP-deleted cell line; assay: SDMA in-cell western assay, HAP1 MTAP-deleted; format: cell-based; conditions: for IC50: Homo sapiens; for MTAP intact/deleted ratio: SDMA in-cell western
Summary of the method: as §1

[5] = tested on: HAP1 MTAP-deleted cell line; assay: Viability assay, MTAP-deleted cell line; format: cell-based; conditions: Homo sapiens
Text: Table 1 additionally indicates IC50 values in a viability assay for the MTAP-deleted cell line (column 10), indicating the effect of treatment with compound on cell survival.

PRMT5 [6] = biological target: T1, PRMT5; assay: PRMT5 biochemical IC50 assay with MTA as cofactor
[7] = PRMT5, SAM as cofactor, read-out: SAM IC50
[8] = HAP1, SDMA in-cell western, HAP1 MTAP-intact, read-out: MTAP HAP1 intact IC50
[9] = HAP1, SDMA in-cell western, HAP1 MTAP-deleted, read-out: HAP 1 MTAP deleted IC50
[10] = IC50 ratio HAP1 MTAP-intact / HAP1 MTAP-deleted
[11] = HAP1, viability assay, MTAP-deleted cell line, read-out: HAP1 MTAP deleted viability
[12] = PRMT5, MTA as cofactor, read-out: MTA IC50
[13] = HAP1, viability, HAP1 MTAP-deleted cell line, read-out: HAP1 MTAP deleted viability
[14] = HAP1, SDMA in-cell western, HAP1 MTAP-deleted, read-out: HAP1 MTAP deleted IC50
[15] = IC50 ratio HAP1 MTAP-intact vs HAP1 MTAP-deleted
[16] = HAP1, read-out: MTAP HAP1 intact IC50
[17] = HAP1, read-out: HAP1 MTAP deleted IC50
[18] = HAP1, read-out: HAP1 MTAP deleted viability

T1 sequence (O14744 whole entry): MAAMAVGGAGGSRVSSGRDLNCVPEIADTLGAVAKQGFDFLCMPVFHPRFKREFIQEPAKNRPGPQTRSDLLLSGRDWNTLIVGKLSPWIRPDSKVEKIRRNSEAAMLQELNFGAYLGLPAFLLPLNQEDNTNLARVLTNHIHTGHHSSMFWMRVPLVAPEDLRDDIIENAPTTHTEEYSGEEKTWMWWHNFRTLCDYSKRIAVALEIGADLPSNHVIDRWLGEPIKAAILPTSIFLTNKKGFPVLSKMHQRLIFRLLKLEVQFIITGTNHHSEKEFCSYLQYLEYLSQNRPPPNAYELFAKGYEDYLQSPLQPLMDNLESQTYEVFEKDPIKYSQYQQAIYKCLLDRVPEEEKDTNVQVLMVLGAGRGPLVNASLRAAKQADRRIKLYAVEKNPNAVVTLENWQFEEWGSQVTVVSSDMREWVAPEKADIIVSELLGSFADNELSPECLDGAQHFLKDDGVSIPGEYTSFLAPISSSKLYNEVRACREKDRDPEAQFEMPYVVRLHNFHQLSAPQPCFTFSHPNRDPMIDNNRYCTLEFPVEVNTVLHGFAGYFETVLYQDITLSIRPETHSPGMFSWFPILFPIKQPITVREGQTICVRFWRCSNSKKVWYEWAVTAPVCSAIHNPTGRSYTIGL
T1 sequence (Q9BQA1 whole entry partner): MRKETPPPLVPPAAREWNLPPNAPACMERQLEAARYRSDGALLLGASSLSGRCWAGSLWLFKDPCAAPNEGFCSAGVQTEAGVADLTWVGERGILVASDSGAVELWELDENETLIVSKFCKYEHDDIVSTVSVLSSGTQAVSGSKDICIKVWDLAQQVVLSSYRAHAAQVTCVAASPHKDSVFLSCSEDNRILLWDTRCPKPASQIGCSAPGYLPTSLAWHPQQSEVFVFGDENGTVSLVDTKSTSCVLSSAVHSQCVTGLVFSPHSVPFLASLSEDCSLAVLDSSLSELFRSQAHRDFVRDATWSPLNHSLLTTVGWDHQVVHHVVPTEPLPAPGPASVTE

Row | IC50 (PRMT5 [1]; [7]) [nM] | IC50 [3, 8] [nM] | IC50 [4, 9] [nM] | IC50 (PRMT5 [6]; [12]) [nM] | IC50 [3, 16] [nM] | IC50 [4, 17] [nM] | SMILES | MTAP intact/deleted ratio [4, 10] | IC50 [5, 13] [nM] | IC50 [5, 18] [nM] | other results
1 | 50 to 500 | > 1000 | > 1000 |  |  |  | Cc1cc(NC(=O)C(=O)N2C[C@H](C)CC[C@@H]2C2CCNC(=O)C2)cnc1N (mixture of isomers) [Compound 159, N-(6-amino-5-methyl-3-pyridyl)-2-[(2S,5S)-5-methyl-2-(2-oxo-4-piperidyl)-1-piperidyl]-2-oxo-acetamide] | B (an IC50 ratio greater than or equal to 3 fold but lower than 10 fold) |  |  | IC50 (PRMT5 [2]): 50 to 500 nM; IC50 [5, 11]: > 10000 nM
2 | 50 to 500 | 100 to 1000 | < 100 | 50 to 500 |  |  | CCc1cc(NC(=O)C(=O)N2C[C@@H](C)CC[C@@H]2c2ccc(N3CCN(C)CC3)c(Cl)c2)cnc1N (racemic) [Compound 1265, N-(6-Amino-5-ethyl-3-pyridyl)-2-oxo-2-[rac-(2R,5S)-2-[3-chloro-4-(4-methylpiperazin-1-yl)phenyl]-5-methyl-1-piperidyl]acetamide] | A (an IC50 ratio greater than or equal to 10 fold) | < 1000 |  | 
3 | > 500 | > 1000 |  | 50 to 500 |  |  | CO[C@H]1C[C@H](c2ccc3scnc3c2)N(C(=O)C(=O)Nc2cncc(C(N)=O)c2)C[C@H]1C (single isomer, unassigned) [Compound 1221] |  |  |  | IC50 [4, 14]: 100 to 1000 nM; MTAP intact/deleted ratio [4, 15]: A (an IC50 ratio greater than or equal to 10 fold); IC50 [5, 11]: 1000 to 10000 nM
4 |  | 100 to 1000 | < 100 |  |  |  | Cc1cc(NC(=O)C(=O)N2C[C@@H](C)CC[C@@H]2c2ccc3c[nH]nc3c2)cnc1N (stereo in doubt) [Compound 636, N-(6-amino-5-methyl-3-pyridyl)-2-[(2R,5S)-2-(1H-indazol-6-yl)-5-methyl-1-piperidyl]-2-oxo-acetamide] | A (an IC50 ratio greater than or equal to 10 fold) |  |  | IC50 ([5]; HAP1, viability IC50, MTAP-deleted cell line, read-out: HAP1 MTAP deleted viability): < 1000 nM
5 |  |  |  |  | > 1000 | 100 to 1000 | CCc1cc(NC(=O)C(=O)N2C[C@H](C)CC[C@H]2c2ccc3scnc3c2)cnc1N (stereo in doubt) [Compound 694, N-(6-amino-5-ethyl-3-pyridyl)-2-[(2S,5R)-2-(1,3-benzothiazol-5-yl)-5-methyl-1-piperidyl]-2-oxo-acetamide] |  |  | 1000 to 10000 | 
6 |  |  |  |  | 100 to 1000 | < 100 | CCc1cc(NC(=O)C(=O)N2C[C@@H](C)CC[C@@H]2c2ccc3scnc3c2)cnc1N (stereo in doubt) [Compound 701, N-(6-amino-5-ethyl-3-pyridyl)-2-[(2R,5S)-2-(1,3-benzothiazol-5-yl)-5-methyl-1-piperidyl]-2-oxo-acetamide] |  |  | < 1000 | 
7 |  |  |  |  | < 100 | < 100 | Cc1cc(NC(=O)C(=O)N2C[C@@H](C)CC[C@@H]2c2ccc3sc(N4CCN(C)CC4)nc3c2)cnc1N [Compound 1158, N-(6-amino-5-methylpyridin-3-yl)-2-((2R,5S)-5-methyl-2-(2-(4-methylpiperazin-1-yl)benzo[d]thiazol-5-yl)piperidin-1-yl)-2-oxoacetamide] |  |  | < 1000 | 
8 | 50 to 500 | 100 to 1000 |  | < 50 |  |  | CCc1cc(NC(=O)C(=O)N2C[C@@H](C)CC[C@@H]2c2cccc(Oc3cccnc3)c2)cnc1N [Compound 1180] |  |  |  | IC50 [4, 14]: < 100 nM; MTAP intact/deleted ratio [4, 15]: A (an IC50 ratio greater than or equal to 10 fold); IC50 [5, 11]: < 1000 nM
9 | 50 to 500 | 100 to 1000 | < 100 | < 50 |  |  | COc1ncc(NC(=O)C(=O)N2C[C@@H](C)CC[C@@H]2c2cccc(N3CCN(C)CC3)c2)cc1C(N)=O [Compound 1277, 2-methoxy-5-(2-((2R,5S)-5-methyl-2-(3-(4-methylpiperazin-1-yl)phenyl)piperidin-1-yl)-2-oxoacetamido)nicotinamide] | A (an IC50 ratio greater than or equal to 10 fold) | < 1000 |  | 
10 | 50 to 500 | 100 to 1000 | < 100 | < 50 |  |  | CCc1cc(NC(=O)C(=O)N2C[C@@H](C)CC[C@@H]2c2cccc(Oc3cc(C)nc(C)c3)c2)cnc1N [Compound 1297, N-(6-amino-5-ethylpyridin-3-yl)-2-((2R,5S)-2-(3-((2,6-dimethylpyridin-4-yl)oxy)phenyl)-5-methylpiperidin-1-yl)-2-oxoacetamide] |  | < 1000 |  | 
11 |  |  |  |  | 100 to 1000 | < 100 | C[C@H]1CC[C@H](c2ccc3scnc3c2)N(C(=O)C(=O)Nc2cnc(N)c(C3CC3)c2)C1 [Compound 1319, N-(6-amino-5-cyclopropyl-3-pyridyl)-2-[(2R,5S)-2-(1,3-benzothiazol-5-yl)-5-methyl-1-piperidyl]-2-oxo-acetamide] |  |  | < 1000 | 
12 |  |  |  |  | < 100 | < 100 | Cc1cc(NC(=O)C(=O)N2C[C@@H](C)CC[C@@H]2c2ccc3sc([C@H]4CCN(C)C(=O)C4)nc3c2)cnc1N [Compound 1333, N-(6-amino-5-methylpyridin-3-yl)-2-((2R,5S)-5-methyl-2-(2-(1-methyl-2-oxopiperidin-4-yl)benzo[d]thiazol-5-yl)piperidin-1-yl)-2-oxoacetamide] |  |  | < 1000 | 
13 |  |  |  |  | 100 to 1000 | < 100 | C[C@H]1CC[C@H](c2ccc3scnc3c2)N(C(=O)C(=O)Nc2cnc(N)c(C3COC3)c2)C1 [Compound 1356, N-[6-amino-5-(oxetan-3-yl)-3-pyridyl]-2-[(2R,5S)-2-(1,3-benzothiazol-5-yl)-5-methyl-1-piperidyl]-2-oxo-acetamide] |  |  | < 1000 | 
14 | < 50 | 100 to 1000 | < 100 | < 50 |  |  | CCc1cc(NC(=O)C(=O)N2C[C@@H](C)CC[C@@H]2c2cccc(C(F)(F)CCN(C)C)c2)cnc1N [Compound 1381, N-(6-amino-5-ethylpyridin-3-yl)-2-((2R,5S)-2-(3-(3-(dimethylamino)-1,1-difluoropropyl)phenyl)-5-methylpiperidin-1-yl)-2-oxoacetamide] | A (an IC50 ratio greater than or equal to 10 fold) | < 1000 |  | 
15 | 50 to 500 | < 100 | < 100 | < 50 |  |  | CCc1cc(NC(=O)C(=O)N2C[C@@H](C)CC[C@@H]2c2cccc(OCCCN(C)C)c2)cnc1N [Compound 1384, N-(6-amino-5-ethylpyridin-3-yl)-2-((2R,5S)-2-(3-(3-(dimethylamino)propoxy)phenyl)-5-methylpiperidin-1-yl)-2-oxoacetamide] | A (an IC50 ratio greater than or equal to 10 fold) | < 1000 |  | 
16 | 50 to 500 | 100 to 1000 | < 100 | < 50 |  |  | CCc1cc(NC(=O)C(=O)N2C[C@@H](C)CC[C@@H]2c2cccc(CCCN(C)C)c2)cnc1N [Compound 1393, N-(6-amino-5-ethylpyridin-3-yl)-2-((2R,5S)-2-(3-(3-(dimethylamino)propyl)phenyl)-5-methylpiperidin-1-yl)-2-oxoacetamide] | A (an IC50 ratio greater than or equal to 10 fold) | < 1000 |  | 

Row | SMILES | IC50 (PRMT5 [1]; [7]) [nM] | IC50 [3, 8] [nM] | IC50 [4, 9] [nM] | IC50 (PRMT5 [6]; [12]) [nM] | IC50 [3, 16] [nM] | IC50 [4, 17] [nM] | MTAP intact/deleted ratio [4, 10] | IC50 [5, 13] [nM] | IC50 [5, 18] [nM] | other results
17 | Cc1cc(NC(=O)C(=O)N2CCCCC2c2ccccc2)cnc1C (stereo not drawn) [Compound 139, N-(5,6-dimethylpyridin-3-yl)-2-oxo-2-(2-phenylpiperidin-1-yl)acetamide] |  |  |  |  | > 1000 | > 1000 |  |  | > 10000 | 
18 | Cc1cc(NC(=O)C(=O)N2C[C@@H](C)CC[C@@H]2c2ccc3scnc3c2)cnc1N [Compound 616, N-(6-amino-5-methyl-3-pyridyl)-2-[(2R,5S)-2-(1,3-benzothiazol-5-yl)-5-methyl-1-piperidyl]-2-oxo-acetamide] |  |  |  |  | 100 to 1000 | < 100 |  |  | < 1000 | 
19 | CCc1cc(NC(=O)C(=O)N2C[C@@H](C)CC[C@@H]2c2ccc3sc(C4(O)CCN(C)CC4)nc3c2)cnc1N [Compound 1107] |  |  |  |  | < 100 | < 100 |  |  | < 1000 | IC50 (PRMT5 [1]; SAM IC50, PRMT5, SAM as cofactor): < 50 nM; IC50 (PRMT5 [6]; MTA IC50, PRMT5, MTA as cofactor): < 50 nM; MTAP intact/deleted ratio [4, 15]: B (an IC50 ratio greater than or equal to 3 fold but lower than 10 fold)
20 | [2H]c1nc2cc([C@H]3CC[C@H](C)CN3C(=O)C(=O)Nc3cnc(N)c(C)c3)ccc2s1 [Compound 1177] |  |  |  |  | 100 to 1000 | < 100 |  |  | < 1000 | 
